Patent US20240002339A1, “THERAPEUTIC COMPOUNDS AND METHODS” (Regents of the University of Minnesota, priority 2022, published 2024)

Key:
[1] = target: T1, CDK2 (Homo sapiens (Human), UniProt P24941); assay: p-Cl-ANS displacement assay (fluorescent binding assay)
[2] = target: T1, CDK2; assay: Isothermal titration calorimetry (ITC); assay type: binding
[3] = target: GST-tagged CDK2 (Homo sapiens (Human), UniProt P24941); assay: Surface plasmon resonance (SPR); assay type: binding; settings: read-out: SPR Kd (SSA)
[4] = target: CDK2/cyclin A (Homo sapiens (Human), UniProt P24941); assay: ADP-Glo enzymatic activity assay; assay type: biochemical

| SMILES | IC50 [1] | Kd [2] | further results |
| --- | --- | --- | --- |
| Cc1cc(NCCc2c[nH]c3ccccc23)c(C(=O)O)cc1[N+](=O)[O-] [Example 6] | 4.2 µM | 5.7 µM |  |
| Nc1c([N+](=O)[O-])ccc(NCCc2c[nH]c3ccccc23)c1C(=O)O [Example 7] | 4.1 µM | 4.4 µM |  |
| O=C(O)c1c(O)cccc1NCCc1c[nH]c2ccccc12 [Example 8] | 20 µM | 5.9 µM |  |
| O=C(O)c1c(NCCc2c[nH]c3ccccc23)ccc([N+](=O)[O-])c1O [Example 9] | 0.66 µM | 0.36 µM |  |
| O=C(O)c1cc([N+](=O)[O-])ccc1NCCc1c[nH]c2cccc(F)c12 [Example 17] | 2.1 µM |  |  |
| O=C(O)c1cc([N+](=O)[O-])ccc1NCCc1c[nH]c2ccc(F)cc12 [Example 19] | 2.5 µM |  |  |
| O=C(O)c1cc([N+](=O)[O-])ccc1NCCc1c[nH]c2c(F)cccc12 [Example 20] | 6 µM |  |  |
| COc1ccc2c(CCNc3ccc([N+](=O)[O-])cc3C(=O)O)c[nH]c2c1 [Example 23] | 1.5 µM |  |  |
| O=C(O)c1cc([N+](=O)[O-])ccc1NCCc1c[nH]c2cc(OC(F)(F)F)ccc12 [Example 25] | 0.94 µM |  |  |
| O=C(O)c1cc(C(F)(F)F)ccc1NCCc1c(CO)[nH]c2ccccc12 [Example 27] | 0.63 µM |  |  |
| O=C(O)c1cc(C(F)(F)F)ccc1NCCc1c[nH]c2ccc([N+](=O)[O-])cc12 [Example 28] | 0.66 µM |  |  |
| N#Cc1ccc2[nH]cc(CCNc3ccc(C(F)(F)F)cc3C(=O)O)c2c1 [Example 29] | 6.2 µM |  |  |
| O=C(O)c1cc(C(F)(F)F)ccc1NCCc1c[nH]c2c(O)cccc12 [Example 31] | 3.4 µM |  |  |
| FC(F)(F)c1ccc(NCCc2c[nH]c3ccccc23)c(-c2nnn[nH]2)c1 [Example 33] | 6.6 µM |  |  |
| O=C(O)c1cc(C(F)(F)F)ccc1NCCc1c[nH]c2cc(F)ccc12 [Example 34] | 0.17 µM | 0.21 µM |  |
| O=C(O)c1cc(C(F)(F)F)ccc1NCCc1c[nH]c2cc(Cl)ccc12 [Example 35] | 0.092 µM | 0.031 µM | Kd [3]: 0.024 µM; IC50 [4]: 0.088 µM |
| FC(F)(F)c1ccc(NCCc2c[nH]c3cc(Br)ccc23)c(-c2nnn[nH]2)c1 [Example 37] | 0.63 µM |  |  |
| O=C(O)c1cc(SC(F)(F)F)ccc1NCCc1c[nH]c2ccccc12 [Example 40] | 0.15 µM |  |  |
| O=C(O)c1cc(F)c(F)cc1NCCc1c[nH]c2ccccc12 [Example 41] | 2.4 µM |  |  |
| O=C(O)c1cc2c(cc1NCCc1c[nH]c3ccccc13)CCCC2 [Example 42] | 6.8 µM |  |  |
| O=C(O)c1cc2ccccc2cc1NCCc1c[nH]c2ccccc12 [Example 43] | 2.7 µM |  |  |
| Cc1[nH]c2cc(Cl)cc(Cl)c2c1CCNc1ccc(C(F)(F)F)cc1C(=O)O [Example 44] | 0.93 µM |  |  |
| Cc1[nH]c2c(Cl)c(Cl)ccc2c1CCNc1ccc(C(F)(F)F)cc1C(=O)O [Example 45] | 1.6 µM |  |  |
| O=C(O)c1cc(C(F)(F)F)ccc1SCCc1c[nH]c2ccccc12 [Example 46] | 1 µM |  |  |
| Cc1[nH]c2cc(F)ccc2c1CC(C)Nc1ccc(C(F)(F)F)cc1C(=O)O (stereo not shown) [Example 47] | 0.17 µM |  |  |

| SMILES | IC50 [1] | Kd [2] | further results |
| --- | --- | --- | --- |
| O=C(O)c1cc(OC(F)(F)F)ccc1NCCc1c[nH]c2cc(F)ccc12 [Example 48] | 0.18 µM |  |  |
| CCOc1cc(NCCc2c[nH]c3cc(C#N)ccc23)c(C(=O)O)cc1OCC [Example 62, 2-((2-(6-Cyano-1H-indol-3-yl)ethyl)amino)-4,5-diethoxybenzoic acid] | 0.77 µM |  |  |
| O=C(O)c1cc(OC(F)(F)F)ccc1NCCc1c[nH]c2cc(Br)ccc12 [Example 63, 2-((2-(6-Bromo-1H-indol-3-yl)ethyl)amino)-5-(trifluoromethoxy)benzoic acid] | < 0.1 µM |  |  |
| O=C(O)c1cc(SC(F)(F)F)ccc1NCCc1c(CO)[nH]c2ccccc12 [Example 64, 2-((2-(2-(Hydroxymethyl)-1H-indol-3-yl)ethyl)amino)-5-((trifluoromethyl)thio)benzoic acid] | 3.8 µM |  |  |
| O=C(O)c1cc(SC(F)(F)F)ccc1NCCc1c(CO)[nH]c2cc(Br)ccc12 [Example 65, 2-((2-(6-Bromo-2-(hydroxymethyl)-1H-indol-3-yl)ethyl)amino)-5-((trifluoromethyl)thio)benzoic acid] | 0.34 µM |  |  |
| O=C(O)c1cc(SC(F)(F)F)ccc1NCCc1c[nH]c2cc(Br)ccc12 [Example 66, 2-((2-(6-Bromo-1H-indol-3-yl)ethyl)amino)-5-((trifluoromethyl)thio)benzoic acid] | 0.17 µM |  |  |
| N#Cc1ccc2c(CCNc3ccc(SC(F)(F)F)cc3C(=O)O)c[nH]c2c1 [Example 67, 2-((2-(6-Cyano-1H-indol-3-yl)ethyl)amino)-5-((trifluoromethyl)thio)benzoic acid] | < 0.1 µM |  |  |
| Cc1c([N+](=O)[O-])ccc(NCCc2c[nH]c3ccccc23)c1C(=O)O [Example 68, 6-((2-(1H-Indol-3-yl)ethyl)amino)-2-methyl-3-nitrobenzoic] | 4.9 µM |  |  |
| COc1cc(NCCc2c[nH]c3ccccc23)c(C(=O)O)cc1Br [Example 69, 2-((2-(1H-Indol-3-yl)ethyl)amino)-5-bromo-4-methoxybenzoic acid] | 28 µM |  |  |
| Cc1cc(C(=O)O)c(NCCc2c[nH]c3ccccc23)cc1Cl [Example 70, 2-((2-(1H-Indol-3-yl)ethyl)amino)-4-chloro-5-methylbenzoic acid] | 11 µM | 6.3 µM |  |
| COc1cc(NCCc2c[nH]c3ccccc23)c(C(=O)O)cc1OC [Example 71, 2-((2-(1H-Indol-3-yl)ethyl)amino)-4,5-dimethoxybenzoic acid] |  | 10 µM |  |
| O=C(O)c1cc2c(cc1NCCc1c[nH]c3ccccc13)OCCO2 [Example 73, 7-((2-(1H-Indol-3-yl)ethyl)amino)-2,3-dihydrobenzo[b][1,4]dioxine-6-carboxylic acid] |  | 30 µM |  |
| Cc1ccc(NCCc2c[nH]c3ccccc23)c(C(=O)O)c1 [Example 76, 2-((2-(1H-Indol-3-yl)ethyl)amino)-5-methylbenzoic acid] |  | 36 µM |  |
| CCc1ccc(NCCc2c[nH]c3ccccc23)c(C(=O)O)c1 [Example 77, 2-((2-(1H-Indol-3-yl)ethyl)amino)-5-ethylbenzoic acid] | 18 µM | 22 µM |  |
| O=C(O)c1cc(-c2ccccc2)ccc1NCCc1c[nH]c2ccccc12 [Example 79, 4-((2-(1H-Indol-3-yl)ethyl)amino)-[1,1′-biphenyl]-3-carboxylic acid] | 11 µM | > 100 µM |  |
| CC(C)(C)c1ccc(NCCc2c[nH]c3ccccc23)c(C(=O)O)c1 [Example 80, 2-((2-(1H-Indol-3-yl)ethyl)amino)-5-(tert-butyl)benzoic acid] | 21 µM | > 100 µM |  |
| CCCc1ccc(NCCc2c[nH]c3ccccc23)c(C(=O)O)c1 [Example 81, 2-((2-(1H-Indol-3-yl)ethyl)amino)-5-propylbenzoic acid] | 5.6 µM | 6.5 µM |  |
| CCSc1ccc(NCCc2c[nH]c3ccccc23)c(C(=O)O)c1 [Example 85, 2-((2-(1H-Indol-3-yl)ethyl)amino)-5-(ethylthio)benzoic acid] |  | 9.1 µM |  |
| O=C(O)c1c(NCCc2c[nH]c3ccccc23)cccc1[N+](=O)[O-] [Example 88, 2-((2-(1H-Indol-3-yl)ethyl)amino)-6-nitrobenzoic acid] | 94 µM | 79 µM |  |
| O=C(O)c1c(NCCc2c[nH]c3ccccc23)cccc1C(F)(F)F [Example 89, 2-((2-(1H-Indol-3-yl)ethyl)amino)-6-(trifluoromethyl)benzoic acid] | 120 µM |  |  |
| N#Cc1cccc(NCCc2c[nH]c3ccccc23)c1C(=O)O [Example 90, 2-((2-(1H-Indol-3-yl)ethyl)amino)-6-cyanobenzoic acid] | 37 µM |  |  |
| O=Cc1ccc(NCCc2c[nH]c3ccccc23)c(C(=O)O)c1 [Example 91, 2-((2-(1H-Indol-3-yl)ethyl)amino)-5-formylbenzoic acid] | 36 µM |  |  |
| O=C(O)c1cc([N+](=O)[O-])ccc1NCCc1c(C(=O)O)[nH]c2ccccc12 [Example 93, 3-(2-((2-Carboxy-4-nitrophenyl)amino)ethyl)-1H-indole-2-carboxylic acid] | 16 µM |  |  |
| O=C(O)c1cc(C(F)(F)F)ccc1NCCc1c[nH]c2cccc(O)c12 [Example 94, 2-((2-(4-Hydroxy-1H-indol-3-yl)ethyl)amino)-5-(trifluoromethyl)benzoic acid] | 51 µM |  |  |
| O=C(O)c1cc(C(F)(F)F)ccc1NCCc1c[nH]c2cc(O)ccc12 [Example 95, 2-((2-(6-Hydroxy-1H-indol-3-yl)ethyl)amino)-5-(trifluoromethyl)benzoic acid] | 91 µM |  |  |
